Test results from ChEMBL document CHEMBL1201862, “PubChem BioAssay data set” (2004).
Where “and” joins values, the source holds several entries; their conditions need not be identical. Equal entries are not always repeated.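 Tested at 5 concentrations; 48 h exposure; 96-well plates; endpoints linearly interpolated, else capped at highest concentration. GI50 = concentration required for 50% inhibition of growth.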 Calls of active or inactive are those of the source. No stated cut-off is given here; in the data, active = GI50 up to about 1.1 µM and inactive = higher.

What was measured:
Experiment in all cases: NCI anticancer screen, dose series, 48 h
HT-29 = system: HT-29
NCI-H522 = system: NCI-H522
A498 = system: A498
UO-31 = system: UO-31
SNB-75 = system: SNB-75
DLD-1 = system: DLD-1
IGROV-1 = system: IGROV-1
OVCAR-4 = system: OVCAR-4
CAKI-1 = system: CAKI-1
HL-60 = system: HL-60
T47D = system: T47D
MCF7 = system: MCF7
BT-549 = system: BT-549
EKVX = system: EKVX
COLO 205 = system: COLO 205
OVCAR-5 = system: OVCAR-5
HCT-15 = system: HCT-15
TK-10 = system: TK-10
SF-295 = system: SF-295
HOP-92 = system: HOP-92

Row | Compound | GI50 (HT-29) | GI50 (NCI-H522) | GI50 (A498) | GI50 (UO-31) | GI50 (SNB-75) | GI50 (DLD-1) | GI50 (IGROV-1) | GI50 (OVCAR-4) | GI50 (CAKI-1) | GI50 (HL-60) | GI50 (T47D) | GI50 (MCF7) | GI50 (BT-549) | GI50 (EKVX) | GI50 (COLO 205) | GI50 (OVCAR-5) | GI50 (HCT-15) | GI50 (TK-10) | GI50 (SF-295) | GI50 (HOP-92)
1 | Cn1cnc([N+](=O)[O-])c1Sc1nnc(-c2cccnc2)n1C | 17.4 µM (inactive) | 5.78 µM (inactive) | > 79.1 µM (inactive) | 32.4 µM (inactive) | 58.7 µM (inactive) | 18.8 µM (inactive) | 68.5 µM (inactive) | 22.2 µM (inactive) | 25.4 µM (inactive) | 6.55 µM (inactive) | 12.6 µM (inactive) | 23.8 µM (inactive) | 19 µM (inactive) | 38.2 µM (inactive) | 15.3 µM (inactive) | 67.3 µM (inactive) | 17.2 µM | 16.8 µM (inactive) | > 100 µM (inactive) | 14.5 µM (inactive)
2 | CC(C)(CN1CCCCC1)C(=O)/C=C/c1ccc(Cl)c(Cl)c1 | 1.61 µM (inactive) | 1.21 µM (inactive) | 1.67 µM (inactive) | 1.63 µM (inactive) | 1.48 µM (inactive) | 1.67 µM (inactive) | 2 µM (inactive) | 1.51 µM (inactive) |  | 1.53 µM (inactive) |  |  |  | 1.76 µM (inactive) | 1.5 µM (inactive) | 1.71 µM (inactive) | 1.41 µM | 1.48 µM (inactive) | 2.45 µM (inactive) | 1.03 µM (active)
3 | Cc1cccc(C(C)C)c1N1C(=O)C(=O)C(c2nc3ccccc3o2)C(=O)C1=O | 56.2 µM (inactive) | 29.5 µM (inactive) | > 100 µM (inactive) | > 100 µM (inactive) | 26.9 µM (inactive) | 39.4 µM (inactive) | > 100 µM (inactive) | > 100 µM (inactive) | > 100 µM (inactive) | 30.3 µM (inactive) |  |  |  | 42.7 µM (inactive) | 41.8 µM (inactive) | > 100 µM (inactive) | 35.5 µM | > 100 µM (inactive) | > 100 µM (inactive) | > 100 µM (inactive)
4 | O=C1OC(CC(=O)c2ccc(Cl)cc2)C(Cl)=C1Cl (stereo not given) | > 100 µM (inactive) | 94.8 µM (inactive) | > 100 µM (inactive) | > 100 µM (inactive) | > 100 µM (inactive) | 52.6 µM (inactive) | > 100 µM (inactive) | > 100 µM (inactive) | > 100 µM (inactive) | 26 µM (inactive) |  |  |  | > 100 µM (inactive) | > 100 µM (inactive) | > 100 µM (inactive) | > 100 µM | > 100 µM (inactive) | > 100 µM (inactive) | > 100 µM (inactive)
5 | CSc1nc2c(nc(C)c(=O)n2C2OCC(OC(C)=O)C(OC(C)=O)C2OC(C)=O)c(=O)[nH]1 (stereo not given) | > 100 µM (inactive) | > 100 µM (inactive) | > 100 µM (inactive) | > 100 µM (inactive) | > 100 µM (inactive) | > 100 µM (inactive) | > 100 µM (inactive) | > 100 µM (inactive) | 88.5 µM (inactive) | > 100 µM (inactive) |  |  |  | > 100 µM (inactive) | > 100 µM (inactive) | > 100 µM (inactive) | > 100 µM | > 100 µM (inactive) | > 100 µM (inactive) | 3.76 µM (inactive)
6 | NC(CCCC(N)P(=O)(O)O)P(=O)(O)O (stereo not given) | > 100 µM (inactive) | > 100 µM (inactive) | > 100 µM (inactive) | > 100 µM (inactive) | > 100 µM (inactive) | > 100 µM (inactive) | > 100 µM (inactive) |  | > 100 µM (inactive) |  |  |  |  | > 100 µM (inactive) | > 100 µM (inactive) |  | > 100 µM | > 100 µM (inactive) | > 100 µM (inactive) | 64.7 µM (inactive)
7 | CC1C[C@@H]2C(=O)NC(=O)[C@@H]2c2c1c1ccccc1n2C (stereo not given in full) | > 100 µM (inactive) | > 100 µM (inactive) | > 100 µM (inactive) | > 100 µM (inactive) | > 100 µM (inactive) | > 100 µM (inactive) | > 100 µM (inactive) |  | > 100 µM (inactive) | > 100 µM (inactive) |  |  |  | > 100 µM (inactive) | > 100 µM (inactive) |  | > 100 µM | > 100 µM (inactive) | > 100 µM (inactive) | > 100 µM (inactive)
8 | Cc1nc(C(N)=S)sc1C(=O)CC(=O)C(=O)Nc1ccccc1[N+](=O)[O-] | > 100 µM (inactive) | > 100 µM (inactive) | > 100 µM (inactive) | > 100 µM (inactive) | > 100 µM (inactive) | > 100 µM (inactive) | > 100 µM (inactive) | > 100 µM (inactive) | > 100 µM (inactive) | > 100 µM (inactive) |  |  |  | > 100 µM (inactive) |  | > 100 µM (inactive) | > 100 µM | > 100 µM (inactive) | > 100 µM (inactive) | > 100 µM (inactive)
9 | COc1ccc(/C(=N/NC(N)=O)C2(O)C(=O)Nc3ccc([N+](=O)[O-])cc32)cc1 (stereo not given) | 19.4 µM (inactive) | 21.8 µM (inactive) | 29.2 µM (inactive) | 20.5 µM (inactive) | 20.6 µM (inactive) | 21.3 µM (inactive) | 31 µM (inactive) | 13.6 µM (inactive) | 24.2 µM (inactive) |  |  |  |  | > 100 µM (inactive) | 23 µM (inactive) | 31.5 µM (inactive) | 20.7 µM |  |  | 22.4 µM (inactive)
10 | CN1c2ccccc2N(C)C2C1N(C)c1ccccc1N2C (stereo not given) | 7.78 µM (inactive) | 4.73 µM (inactive) | 31.6 µM (inactive) | 31.6 µM (inactive) | 6.9 µM (inactive) | 14.1 µM (inactive) | 20.7 µM (inactive) | 26 µM (inactive) | 15.1 µM (inactive) | 2.29 µM (inactive) |  |  |  | 61.5 µM (inactive) | 10.8 µM (inactive) | 59.3 µM (inactive) | 4.25 µM | 36.9 µM (inactive) | 31.3 µM (inactive) | 10.4 µM (inactive)
11 | O=c1nc(NC(c2ccccc2)(c2ccccc2)c2ccccc2)ccn1CCO | 60 µM (inactive) | 51.5 µM (inactive) | > 100 µM (inactive) | > 100 µM (inactive) | 40.8 µM (inactive) | 39.6 µM (inactive) | > 100 µM (inactive) | 63.2 µM (inactive) |  | 41 µM (inactive) |  |  |  | 81.8 µM (inactive) | > 100 µM (inactive) | > 100 µM (inactive) | 63.5 µM | > 100 µM (inactive) | 61.1 µM (inactive) | 41.4 µM (inactive)
12 | CCC(=O)OCOc1ccc(/C=C2\CCC(CN(C)C)C2=O)cc1 (stereo not given) | 6.31 µM (inactive) | 1.93 µM (inactive) | 15.9 µM (inactive) | 7.8 µM (inactive) | 12.8 µM (inactive) | 2.19 µM (inactive) | 6.44 µM (inactive) | 4.09 µM (inactive) | 4.67 µM (inactive) | 1.36 µM (inactive) | 3.52 µM (inactive) | 3.03 µM (inactive) | 2.05 µM (inactive) | 14 µM (inactive) | 3.78 µM (inactive) | 16.8 µM (inactive) | 3.13 µM | 9.12 µM (inactive) | 8.85 µM (inactive) | 11 µM (inactive)
13 | COC(=O)CCC(NC(=S)N/N=C/c1ccccn1)C(=O)OC (stereo not given) | > 100 µM (inactive) | > 100 µM (inactive) | > 100 µM (inactive) | > 100 µM (inactive) | > 100 µM (inactive) | > 100 µM (inactive) | > 100 µM (inactive) | > 100 µM (inactive) |  | 84.3 µM (inactive) |  |  |  | > 100 µM (inactive) | > 100 µM (inactive) | 63.1 µM (inactive) | > 100 µM | > 100 µM (inactive) | > 100 µM (inactive) | 84.5 µM (inactive)
14 | N#Cc1cccc(N2C(=O)c3ccc(C(=O)c4ccc5c(c4)C(=O)N(c4cccc(C#N)c4)C5=O)cc3C2=O)c1 | > 100 µM (inactive) | > 100 µM (inactive) | > 100 µM (inactive) | > 100 µM (inactive) | 35.6 µM (inactive) | > 100 µM (inactive) | > 100 µM (inactive) | > 100 µM (inactive) | > 100 µM (inactive) | > 100 µM (inactive) |  |  |  | > 100 µM (inactive) | > 100 µM (inactive) | > 100 µM (inactive) | > 100 µM | > 100 µM (inactive) | > 100 µM (inactive) | 59 µM (inactive)
15 | CN1N=C2c3ccccc3CC[C@H]2C1c1ccccc1 (stereo not given in full) | 22.9 µM (inactive) | 17.6 µM (inactive) | 72.1 µM (inactive) | 19.4 µM (inactive) |  | 41.8 µM (inactive) | 85.5 µM (inactive) | 23.1 µM (inactive) |  | 29.6 µM (inactive) |  |  |  | 49.3 µM (inactive) | 35.7 µM (inactive) | > 100 µM (inactive) | 27 µM | > 100 µM (inactive) | 35.3 µM (inactive) | 5.25 µM (inactive)
16 | COc1cc2c(cc1O)[C@H](C)C(c1ccc(Cl)cc1)O2 (stereo not given in full) | 30.9 µM (inactive) | 13.3 µM (inactive) | 11.9 µM (inactive) | 24.4 µM (inactive) | 2.72 µM (inactive) | 24.8 µM (inactive) | 22.5 µM (inactive) | 32.1 µM (inactive) | 11.6 µM (inactive) | 14.2 µM (inactive) |  |  |  | 23 µM (inactive) | 27.2 µM (inactive) | 25.4 µM (inactive) | 13.1 µM | 24.4 µM (inactive) | 31 µM (inactive) | 17.3 µM (inactive)
17 | O=c1c(Cl)c(Cl)cnn1-c1ccccc1 |  | 1.26 µM (inactive) and 1.84 µM (inactive) | 14.9 µM (inactive) and 17.1 µM (inactive) | 4.18 µM (inactive) and 3.56 µM (inactive) |  | 1.44 µM (inactive) and 2.35 µM (inactive) |  | 2.19 µM (inactive) and 1.53 µM (inactive) |  | 893 nM (active) and 1.09 µM (active) | 4.33 µM (inactive) and 2.44 µM (inactive) | 4.07 µM (inactive) and 3.31 µM (inactive) | 1.8 µM (inactive) and 1.73 µM (inactive) |  |  |  | 2.35 µM and 1.85 µM | 15.6 µM (inactive) and 9.33 µM (inactive) |  | 
